For assay [1], the system named is SP-PGQ-3 (DNA, G4) GGGCTAATAGGGAGAGCAGGGACGGGG
The experiment in a line: ITC. The following applies: K+ (10 mM potassium phosphate); pH 7.2, 25 °C; two-site fit, high-affinity site; site 1 of 2.

Assay [2] concerns SP-PGQ-1 (DNA, G4) GGGCAACTTGGCTGGGGTCTAGTTCCACGGGACGGG
The experiment in a line: ITC. The conditions noted are these: K+ (10 mM potassium phosphate); pH 7.2, 25 °C; two-site fit, high-affinity site; site 1 of 2.

As for `C[n+]1ccc(-c2c3nc(c(-c4cc[n+](C)cc4)c4ccc([nH]4)c(-c4cc[n+](C)cc4)c4nc(c(-c5cc[n+](C)cc5)c5ccc2[nH]5)C=C4)C=C3)cc1`, the Ka in assay [1] came out at 2.49e+07 M⁻¹; in assay [2] it was 1.59e+06 M⁻¹.

Values taken from paper PMC6370756 (2019).
